Results: patent publication US8921364B2, “Modulators of calcium release-activated calcium channel” (Rhizen Pharmaceuticals SA, priority 2009, dated 2014)
pIC50: −log10 of the molar value. Where a name gives a salt, the structure may show the parent alone. Read-outs that look alike come from different tables or passages of the source.

Biological target: CRAC channels (Homo sapiens (Human), UniProt Q96D31)
Experiment: In-vitro CRAC channel inhibition assay in Jurkat cells (thapsigargin-induced calcium influx)
Format: cell-based
Protocol: Inhibition of CRAC channels was determined following thapsigargin (Sigma, Cat # T9033) induced endoplasmic calcium release in Jurkat cells. […] Cells were centrifuged and re-suspended in equal volumes ° f Ca^2+ and Mg^2+ free Hanks buffer and Fluo-8 NW dye (ABD Bioquest, Inc., Sunnyvale, Calif.) loading solution at 2×10^5 cells/100 μl/well in 96-well black plate. Plate is incubated at 37° C., 5% CO2 for 30 min followed by further 15 min incubation at room temperature. Test compounds (DMSO stocks diluted in Ca^2+ and Mg^2+ free Hanks buffer) at desired concentrations were added to the wells and incubated for […] Thapsigargin (1 μM final concentration) was added to the wells and incubated for 15 min to inhibit the Sarco-endoplasmic reticulum Ca^2+ ATPase pump thereby depleting endoplasmic calcium and raising cytosolic calcium concentrations. Store-operated calcium entry was initiated by adding extracellular Ca^2+ to a final concentration of 1.8 mM. Fluorescence was monitored over […] on a plate reader (BMG Labtech., Germany) with excitation at 485 nm and an emission wavelength at 520 nm. Data were analyzed using GraphPad Prism. IC50 for each compound was determined based on the percent inhibition of thapsigargin-induced calcium influx into cells.

[1] = Jurkat cells, thapsigargin-induced calcium influx

Sequence of CRAC channels (Q96D31 whole entry): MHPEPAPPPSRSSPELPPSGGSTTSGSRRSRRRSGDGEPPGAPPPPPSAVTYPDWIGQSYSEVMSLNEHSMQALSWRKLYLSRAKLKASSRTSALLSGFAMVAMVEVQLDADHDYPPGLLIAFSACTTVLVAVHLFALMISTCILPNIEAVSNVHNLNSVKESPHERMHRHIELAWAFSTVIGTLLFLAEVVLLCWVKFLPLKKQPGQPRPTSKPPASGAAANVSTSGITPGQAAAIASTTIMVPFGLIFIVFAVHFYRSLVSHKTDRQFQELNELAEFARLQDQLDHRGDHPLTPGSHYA

| Compound | pIC50 [1] | other results |
| --- | --- | --- |
| Cc1nnsc1C(=O)Nc1ccc(-n2nc(C3CC3)cc2C2CC2)cc1 [Example 1, N-[4-(3,5-dicyclopropyl-1H-pyrazol-1-yl)phenyl]-4-methyl-1,2,3-thiadiazole-5-carboxamide] | 7.20 | – |
| Cc1ncsc1C(=O)Nc1ccc(-n2nc(C3CC3)cc2C2CC2)cc1 [Example 2, N-[4-(3,5-dicyclopropyl-1H-pyrazol-1-yl)phenyl]-4-methylthiazole-5-carboxamide] | 6.68 | – |
| Cc1oncc1C(=O)Nc1ccc(-n2nc(C3CC3)cc2C2CC2)cc1 [Example 4, N-[4-(3,5-dicyclopropyl-1H-pyrazol-1-yl)phenyl]-5-methylisoxazole-4-carboxamide] | – | pIC50: 6.59 |
| O=C(Nc1ccc(-n2nc(C3CC3)cc2C2CC2)cc1)c1ccncc1F [Example 16, N-[4-(3,5-dicyclopropyl-1H-pyrazol-1-yl)phenyl]-3-fluoroisonicotinamide] | 6.61 | – |
| O=C(Nc1ccc(-n2nc(C3CC3)cc2C2CC2)cc1)c1c(Cl)cncc1Cl [Example 17, 3,5-dichloro-N-(4-(3,5-dicyclopropyl-1H-pyrazol-1-yl)phenyl)isonicotinamide] | 6.89 | – |
| O=C(Nc1ccc(-n2nc(C3CC3)cc2C2CC2)c(F)c1)c1c(F)cccc1F [Example 33, N-[4-(3,5-dicyclopropyl-1H-pyrazol-1-yl)-3-fluorophenyl]-2,6-difluorobenzamide] | 6.84 | – |
| O=C(Nc1ccc(-n2nc(C3CC3)cc2C2CC2)c(F)c1)c1ccncc1 [Example 35, N-[4-(3,5-dicyclopropyl-1H-pyrazol-1-yl)-3-fluorophenyl]isonicotinamide hydrochloride] | 6.73 | inhibition at 1 µM (Jurkat cells, 1 uM, thapsigargin-induced calcium influx): 100% |
| Cc1nnsc1C(=O)Nc1ccc(-n2nc(C(F)(F)F)cc2C2CC2)cc1 [Example 52, N-{4-[5-cyclopropyl-3-(trifluoromethyl)-1H-pyrazol-1-yl]phenyl}-4-methyl-1,2,3-thiadiazole-5-carboxamide] | 6.74 | – |
| Cc1ncsc1C(=O)Nc1ccc(-n2nc(C(F)(F)F)cc2C2CC2)cc1 [Example 53, N-{4-[5-cyclopropyl-3-(trifluoromethyl)-1H-pyrazol-1-yl]phenyl}-4-methylthiazole-5-carboxamide] | 7.14 | – |
| Cc1oncc1C(=O)Nc1ccc(-n2nc(C(F)(F)F)cc2C2CC2)cc1 [Example 56, N-{4-[5-cyclopropyl-3-(trifluoromethyl)-1H-pyrazol-1-yl]phenyl}-5-methylisoxazole-4-carboxamide] | 7.20 | – |
| Cc1noc(C)c1C(=O)Nc1ccc(-n2nc(C(F)(F)F)cc2C2CC2)cc1 [Example 57, N-{4-[5-cyclopropyl-3-(trifluoromethyl)-1H-pyrazol-1-yl]phenyl}-3,5-dimethylisoxazole-4-carboxamide] | 6.90 | – |
| Cc1ncsc1NC(=O)c1ccc(-n2nc(C(F)(F)F)cc2C2CC2)cc1 [Example 78, 4-[5-cyclopropyl-3-(trifluoromethyl)-1H-pyrazol-1-yl]-N-(4-methylthiazol-5-yl)benzamide] | 7.47 | – |
| Cc1ncsc1C(=O)Nc1ccc(-n2nc(C(F)(F)F)c(Cl)c2C2CC2)cc1 [Example 80, N-{4-[4-chloro-5-cyclopropyl-3-(trifluoromethyl)-1H-pyrazol-1-yl]phenyl}-4-methylthiazole-5-carboxamide] | 6.71 | – |
| Cc1ncsc1C(=O)Nc1ccc(-n2nc(C(F)(F)F)cc2C2CC2)c(F)c1 [Example 83, N-{4-[5-cyclopropyl-3-(trifluoromethyl)-1H-pyrazol-1-yl]-3-fluorophenyl}-4-methylthiazole-5-carboxamide] | 7.32 | – |
| Cc1oncc1C(=O)Nc1ccc(-n2nc(C(F)(F)F)cc2C2CC2)c(F)c1 [Example 84, N-{4-[5-cyclopropyl-3-(trifluoromethyl)-1H-pyrazol-1-yl]-3-fluorophenyl}-5-methylisoxazole-4-carboxamide] | 7.68 | – |
| O=C(Nc1ccc(-n2nc(C(F)(F)F)cc2C2CC2)c(F)c1)c1cccc(F)c1F [Example 87, N-{4-[5-cyclopropyl-3-(trifluoromethyl)-1H-pyrazol-1-yl]-3-fluorophenyl}-2,3-difluorobenzamide] | 7.49 | – |
| Cc1ncncc1C(=O)Nc1ccc(-n2nc(C(F)(F)F)cc2C2CC2)c(F)c1 [Example 93, N-{4-[5-cyclopropyl-3-(trifluoromethyl)-1H-pyrazol-1-yl]-3-fluorophenyl}-4-methylpyrimidine-5-carboxamide] | 7.09 | – |
| O=C(Nc1ccc(-n2nc(C(F)(F)F)cc2C2CC2)nc1)c1cccc(F)c1F [Example 107, N-{6-[5-cyclopropyl-3-(trifluoromethyl)-1H-pyrazol-1-yl]pyridin-3-yl}-2,3-difluorobenzamide] | 7.15 | – |

Now from value to compound, other results behind:

| pIC50 [1] | Compound | other results |
| --- | --- | --- |
| 7.44 | Cc1ccccc1C(=O)Nc1ccc(-n2nc(C3CC3)cc2C2CC2)cc1 [Example 7, N-[4-(3,5-dicyclopropyl-1H-pyrazol-1-yl)phenyl]-2-methylbenzamide] | – |
| 6.34 | O=C(Cc1ccccc1)Nc1ccc(-n2nc(C3CC3)cc2C2CC2)cc1 [Example 19, N-[4-(3,5-dicyclopropyl-1H-pyrazol-1-yl)phenyl]-2-phenylacetamide] | – |
| 6.01 | O=C(Cc1ccccn1)Nc1ccc(-n2nc(C3CC3)cc2C2CC2)cc1 [Example 22, N-[4-(3,5-dicyclopropyl-1H-pyrazol-1-yl)phenyl]-2-(pyridin-2-yl)acetamide hydrochloride] | – |
| 7.22 | Cc1nnsc1C(=O)Nc1ccc(-n2nc(C3CC3)cc2C2CC2)c(F)c1 [Example 28, N-[4-(3,5-dicyclopropyl-1H-pyrazol-1-yl)-3-fluorophenyl]-4-methyl-1,2,3-thiadiazole-5-carboxamide] | – |
| 6.65 | Cc1ncncc1C(=O)Nc1ccc(-n2nc(C3CC3)cc2C2CC2)c(F)c1 [Example 36, N-[4-(3,5-dicyclopropyl-1H-pyrazol-1-yl)-3-fluorophenyl]-4-methylpyrimidine-5-carboxamide] | – |
| 6.74 | Cc1nnsc1C(=O)Nc1ccc(-n2nc(C3CC3)c(Cl)c2C2CC2)c(F)c1 [Example 37, N-[4-(4-chloro-3,5-dicyclopropyl-1H-pyrazol-1-yl)-3-fluorophenyl]-4-methyl-1,2,3-thiadiazole-5-carboxamide] | – |
| 6.07 | Cc1ncsc1C(=O)Nc1ccc(-n2nc(C3CC3)cc2C2CC2)nc1 [Example 39, N-[6-(3,5-dicyclopropyl-1H-pyrazol-1-yl)pyridin-3-yl]-4-methylthiazole-5-carboxamide hydrochloride] | – |
| 6.36 | O=C(Nc1ccc(-n2nc(C3CC3)cc2C2CC2)nc1)c1c(F)cccc1F [Example 45, N-[6-(3,5-dicyclopropyl-1H-pyrazol-1-yl)pyridin-3-yl]-2,6-difluorobenzamide hydrochloride] | – |
| 6.92 | Cc1ccccc1C(=O)Nc1ccc(-n2nc(C(F)(F)F)cc2C2CC2)cc1 [Example 60, N-{4-[5-cyclopropyl-3-(trifluoromethyl)-1H-pyrazol-1-yl]phenyl}-2-methylbenzamide] | – |
| 7.69 | O=C(Nc1ccc(-n2nc(C(F)(F)F)cc2C2CC2)cc1)c1ccncc1F [Example 67, N-{4-[5-cyclopropyl-3-(trifluoromethyl)-1H-pyrazol-1-yl]phenyl}-3-fluoroisonicotinamide] | – |
| 7.32 | Cc1ncsc1CNc1ccc(-n2nc(C(F)(F)F)cc2C2CC2)cc1 [Example 74, 4-[5-cyclopropyl-3-(trifluoromethyl)-1H-pyrazol-1-yl]-N-[(4-methylthiazol-5-yl)methyl]aniline] | – |
| 6.91 | O=C(Nc1c(F)cccc1F)c1ccc(-n2nc(C(F)(F)F)cc2C2CC2)cc1 [Example 79, 4-[5-cyclopropyl-3-(trifluoromethyl)-1H-pyrazol-1-yl]-N-(2,6-difluorophenyl)benzamide] | – |
| 7.45 | Cc1nnsc1C(=O)Nc1ccc(-n2nc(C(F)(F)F)cc2C2CC2)c(F)c1 [Example 82, N-{4-[5-cyclopropyl-3-(trifluoromethyl)-1H-pyrazol-1-yl]-3-fluorophenyl}-4-methyl-1,2,3-thiadiazole-5-carboxamide] | – |
| 6.22 | Cc1ncncc1NC(=O)Nc1ccc(-n2nc(C(F)(F)F)cc2C2CC2)c(F)c1 [Example 97, 1-{4-[5-cyclopropyl-3-(trifluoromethyl)-1H-pyrazol-1-yl]-3-fluorophenyl}-3-(4-methylpyrimidin-5-yl)urea] | – |
| 7.00 | O=C(Nc1c(F)cccc1F)c1ccc(-n2nc(C(F)(F)F)cc2C2CC2)c(F)c1 [Example 100, 4-[5-cyclopropyl-3-(trifluoromethyl)-1H-pyrazol-1-yl]-N-(2,6-difluorophenyl)-3-fluorobenzamide] | – |
| 6.83 | Cc1nnsc1C(=O)Nc1ccc(-n2nc(C(F)(F)F)cc2C2CC2)nc1 [Example 101, N-{6-[5-cyclopropyl-3-(trifluoromethyl)-1H-pyrazol-1-yl]pyridin-3-yl}-4-methyl-1,2,3-thiadiazole-5-carboxamide] | – |
| 7.64 | Cc1ccccc1C(=O)Nc1ccc(-n2nc(C(F)(F)F)cc2C2CC2)nc1 [Example 104, N-{6-[5-cyclopropyl-3-(trifluoromethyl)-1H-pyrazol-1-yl]pyridin-3-yl}-2-methylbenzamide] | – |
| 7.22 | O=C(Nc1ccc(-n2nc(C(F)(F)F)cc2C2CC2)nc1)c1ccccc1F [Example 106, N-(6-(5-cyclopropyl-3-(trifluoromethyl)-1H-pyrazol-1-yl)pyridin-3-yl)-2-fluorobenzamide] | – |
